# Test results from patent US11779628B2, “Use of cell-permeable peptide inhibitors of the JNK signal transduction pathway for the treatment of various diseases” (Xigen Inflammation Ltd., priority 2014, dated 2023).
# Where two headings read alike, the source gives them in different places.
# What was measured:
# [1] = Phase I pharmacokinetics after single iv infusion; details: human, in vivo
# Description: The primary objective of the study was to assess the safety and tolerability of XG-102 following intravenous (iv) infusion of single escalating doses of XG-102 to healthy male volunteers. The secondary objective of the study was to assess the pharmacokinetics of XG-102 following iv infusion of single escalating doses of XG-102 to healthy male volunteers. Doses were administered as a 60 minute iv infusion. For control purposes, placebo iv infusion was administered to control subjects. This was a single-centre, randomized, double blind, placebo controlled, ascending single dose, sequential group study. […] Screening was performed in the 3-week period prior to dosing. Dosing occurred on Day 0 for each subject. […] Data for all subjects were included in the safety analyses; data for all subjects who received XG-102 were included in the pharmacokinetic analyses.
# [2] = tested on: db/db mice; details: mouse, in vivo
# Description: i) Animals • A total of twenty (20) male db/db mice (8 weeks old) were obtained from Charles River (Germany). Upon arrival, animals were group housed (n=6-7/group) and offered regular rodent chow (Altromin standard #1324 chow; C. Petersen, Ringsted, Denmark) and water ad libitum unless otherwise stated. The mice were housed under a 12:12 L/D cycle (lights on at 4:00 and lights off at 16:00) and in temperature and humidity controlled rooms.
# ii) Groups and Randomization • On day −4, mice were randomized according to blood glucose level (fasted; blood glucose measured on Biosen S line analyzer (EKF diagnostic, Germany) to participate in one of the following drug treatment groups (n=6): • 1) Vehicle control, S.C. (physiological saline) • 2) XG-102 (SEQ ID NO: 11); 1 mg/kg; s.c. • 3) XG-102 (SEQ ID NO: 11); 10 mg/kg; s.c • All doses listed were calculated for the free-base. […] All compounds were administered sub-cutaneously (s.c.) in a volume of 3 ml/kg. The formulation instructions for vehicle control and XG-102 (SEQ ID NO: 11) were as follows: • First, XG-102 (SEQ ID NO: 11) was dissolved in the vehicle. […]
# i) Blood Glucose • Blood glucose was measured from 7 hour fasted animals 6 hours post dosing by collection of 10 μl blood samples from the tail-vein in hematocrite tubes and subsequent analysis on a Biosen s-line analyzer (EKF-diagnostic; Germany).
# [3] = tested on: HCT 116 human colon tumor; test: Orthotopic HCT 116 human colon tumors in SCID mice; type: in vivo
# Description: The objective of this study was to determine the effect of XG-102 on the growth of HCT 116 human colon tumor orthotopically xenografted in SCID mice.
# For XG-102 administration the required amount of XG-102 was dissolved in the vehicle. The formulation was prepared according to the procedure detailed below. Concentrations were calculated and expressed taking into account test item purity and peptide content (multiplier coefficient was 74.6%). […] Diluted solutions were maintained on ice until use. Unused material was discarded. XG-102 was injected once daily at 0.1 and 1 mg/kg/inj. for a total of fourteen consecutive administrations (Q1Dx14). The routes of substance administrations were: injected subcutaneously (SC) at 5 ml/kg/inj., administered per os (PO) to mice by oral gavage via a cannula at 5 ml/kg/adm. The injection and administration volumes were adapted, according to the daily individual body weight of mice.
# Twenty four to Forty-eight hours before tumor induction, 5 SCID mice were irradiated with a γ-source (1.8 Gy, Co^60, INRA, Dijon, France). Ten millions (10^7) HCT 116 cells suspended in 200 μl of RPMI medium were subcutaneously injected in the right flank of the 5 female SCJD mice. When tumors reached 1000-2000 mm^3, mice were sacrificed. Tumors were surgically excised from the animal to obtain fresh tumor fragments (20-30 mg) to be orthotopically implanted on the caecum of 75 mice at D0.
# Twenty four to forty-eight hours before tumor implantation, 75 SCID mice were irradiated with a γ-source (1.8 Gy, Co^60, INRA, Dijon, France). The surgery was performed in the afternoon, with a minimum delay of two hours after the 7th XG-102 treatment. The abdomen from anaesthetized animal was opened through a median incision under aseptic conditions. The caecum was exteriorized and a small lesion was performed on caecum wall. The tumor fragment was placed on lesion and fixed with 6/0 sutures. The abdominal cavity was subsequently closed in 2 layers with 4/0 sutures.
# At D-7, mice were randomized according to their body weight before treatment start to form 5 groups of 15 mice. The body weight of each group was not statistically different from the others (analysis of variance). The treatment began at D-7 according to following treatment schedule: • Mice from group 1 received one PO administration of XG-102 vehicle at 5 ml/kg/inj. once daily for a total of fourteen consecutive administrations (Q 1 Dx14), • Mice from group 2 received one PO administration of XG-102 at 0.1 mg//kg/inj. once daily for a total of fourteen consecutive administrations (QI Dx14), • Mice from group 3 received one PO administration of XG-102 at 1 mg//kg/inj. Once daily for a total of fourteen consecutive administrations (Q1Dx14), • Mice from group 4 received one SC injection of XG-102 at 0.1 mg//kg/inj. once daily for a total of fourteen successive administrations (Q1Dx14), • Mice from group 5 received one SC injection of XG-102 at 1 mg//kg/inj. once daily for a total of fourteen consecutive administrations (Q1Dx14):
# Mice were monitored every day throughout the study for behaviour and survival. The body weight and tumor volume was monitored twice a week for all mice throughout the study. Isoflurane® Forene (Centravet, Bondoufle, France) was used to anaesthetize the animals before cell injection, surgery (orthotopic tumor implantation) and sacrifice.
# Mice were sacrificed at D26. […] Invasion of liver by tumor nodules was evaluated macroscopically. […]
structure (smiles),measurement,setting,value
CC(C)C[C@@H](NC(=O)[C@@H](Cc1ccccc1)NC(=O)[C@H]1CCCN1C(=O)[C@@H](CCC(N)=O)NC(=O)[C@H](NC(=O)[C@H]1CCCN1C(=O)[C@@H](CCCNC(=N)N)NC(=O)[C@@H](CO)NC(=O)[C@@H](CCC(N)=O)NC(=O)[C@H](N)CC(=O)O)C(C)C)C(=O)N[C@H](CC(N)=O)C(=O)N[C@H](CC(C)C)C(=O)N[C@@H](C(=O)N[C@@H](C(=O)N1CCC[C@@H]1C(=O)N[C@H](CCCNC(=N)N)C(=O)N[C@H](CCCCN)C(=O)N1CCC[C@@H]1C(=O)N[C@H](CCCNC(=N)N)C(=O)N1CCC[C@@H]1C(=O)N1CCC[C@@H]1C(=O)N[C@H](CCCNC(=N)N)C(=O)N[C@H](CCCNC(=N)N)C(=O)N[C@H](CCCNC(=N)N)C(=O)N[C@H](CCC(N)=O)C(=O)N[C@H](CCCNC(=N)N)C(=O)N[C@H](CCCNC(=N)N)C(=O)N[C@H](CCCCN)C(=O)N[C@H](CCCCN)C(=O)N[C@H](CCCNC(=N)N)C(=O)NCC(=O)O)[C@H](C)O)[C@H](C)O [XG-102],dose proportionality of AUC0-last,[1],increases in a more than linear proportion with dose in the tested dose range
same,MRT,[1]; 80 ug/kg,1.02 (14.7) h
same,reaction of subcutaneous tissue at injection,[2]; 1 mg/kg,mild nodular fibrosis was observed
same,reaction of subcutaneous tissue at injection,[2]; 10 mg/kg,nodular fibrosis was observed in the subcutaneous tissue
same,percentage of death D0 to D9 (surgery complications),"[3]; 1st treated group listed (PO 0.1 mg/kg, order assumed)",40%
same,percentage of death D0 to D9 (surgery complications),"[3]; 2nd treated group listed (PO 1 mg/kg, order assumed)",34%
same,percentage of death D0 to D9 (surgery complications),"[3]; 3rd treated group listed (SC 0.1 mg/kg, order assumed)",47%
same,percentage of death D0 to D9 (surgery complications),"[3]; 4th treated group listed (SC 1 mg/kg, order assumed)",40%
same,MBWC at D-2,[3]; PO 0.1 mg/kg/adm.,+7.1±4.6%
